Common to all, as to assay: growth of human tumour cells (NCI), 48 h
For experiment [1], the system named is A498 renal.
In experiment [2] the test system is ACHN renal.
The subject of experiment [3] is HCT-116 colon.
Experiment [4] has as its system HOP-62 NSCLC.
Experiment [5] deals with K-562 leukemia.
The test system of experiment [6] is KM12 colon.
Experiment [7] relates to MALME-3M melanoma.
Experiment [8] has as its system NCI-H460 lung.
The test system of experiment [9] is NCI-H522 lung.
Experiment [10] has as its system OVCAR-3 ovarian.

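Exposure lasted 48 hours, with cells grown in 96-well plates and compounds tested at five concentrations. TGI marks complete inhibition of growth.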

We go through four compounds from PubChem BioAssay (NCI).

For the compound `CCN(CC)C(=O)CCN1CC1`, the TGI in [1], in experiment [2], in experiment [3], in experiment [4], in experiment [5] and in [6] was more than 10 µM each time. In addition, the TGI in experiment [7], in experiment [8], in experiment [9] and in experiment [10] was more than 10 µM in each case.

In the case of `CSc1cnc2ccccc2c1Sc1c[nH]c2ccccc2c1=O`, the TGI was 47.4 µM in experiment [1]; 52.5 µM in [2]; 28.7 µM in experiment [3]; 43.6 µM in [4]; more than 58.1 µM in experiment [5]; 22.2 µM in experiment [6]. The TGI in experiment [7] amounted to 37.6 µM; in experiment [8] it was 22.8 µM; in experiment [9], 11 µM; in experiment [10] it was 22 µM.

For `O=C(O)c1cccc(NC(C(=O)c2ccccc2)c2ccccc2)c1` (stereo not given), the TGI in experiment [1], in experiment [2], in experiment [3], in experiment [4], in [5] and in experiment [6] was more than 100 µM each time. For the same compound, the TGI in experiment [7], in experiment [8], in [9] and in experiment [10] was more than 100 µM in each case.

Take `COc1ccc(C)cc(=O)c1O`: the TGI in experiment [1], in [2], in experiment [3], in experiment [4], in [5] and in experiment [6] was more than 100 µM each time. Moreover, the TGI in experiment [7] is more than 100 µM; in experiment [8], more than 100 µM; in experiment [9], 84.8 µM; in [10], more than 100 µM.
